Source: patent EP1053246B1, “BETA-SHEET MIMETICS AND METHODS RELATING TO THE USE THEREOF” (MOLECUMETICS, LTD., priority 1998, dated 1999)
pIC50, pKi: −log10 of the molar value. Blank lines part the entries; values can stand above or below the compound they belong to.

Tests used:
[1] = biological target: Activated Protein C (aPC) (Homo sapiens, UniProt P04070); experiment: activated protein C inhibition assay (IC50, Example 4); format: biochemical; settings: footnote d: IC50
Method: (§1) All inhibition assays of this experiment were performed at room temperature in 96 well microplates using a Bio-Rad microplate reader (Model 3550). […] This solution (2.05 mM) served as the stock solution for all the inhibition assays. The hydrolysis of chromogenic substrates was monitored at 405 nm. The reaction progress curves were recorded by reading the plates typically 90 times with 30 seconds to 2 minute intervals. The initial rate were determined by unweighted nonlinear least-squares fitting to a first order reaction in GraFit.
Activated Protein C (aPC): Buffer was the same as used in thrombin assay. […] Dilutions of structure (13b) were the same as in urokinase assay.

bovine factor Xa = biological target: T1, bovine factor Xa (Bos taurus, UniProt P00743); experiment: Factor X inhibition assay (IC50, Example 4); format: biochemical; settings: footnote d: IC50; footnote e: bovine plasma; read-out: IC50 Factor X
T1 construct: bovine factor Xa (from Sigma); purchased Sigma
Method: as §1
In the Factor X assay, buffer and substrate are the same as used for thrombin assay. A 1:100 dilution was made into pH 8.4 Tris buffer to serve as the first point. Seven dilutions with a dilution factor of 2 were made. The assay protocol is the same as for thrombin except 25 nM of bovine factor Xa (from Sigma) in pH 8.4 Tris buffer was used instead of thrombin.

[2] = biological target: Tissue Plasminogen Activator (t-PA) (Homo sapiens, UniProt P00750); experiment: t-PA inhibition assay (IC50, Example 4); format: biochemical; settings: footnote d: IC50
Method: as §1

FVIIa and TF complex = biological target: T2, FVIIa and TF complex (Homo sapiens, UniProt P08709); experiment: Factor VII inhibition assay (IC50, Example 4); format: biochemical; settings: footnote d: IC50
T2 construct: 50 µl of 16 nM FVIIa and TF complex solution
Method: as §1
In the Factor VII assay, S-2288 (from Pharmacia), D-Ile-Pro-Arg-pNA was used at […] in deionized water as substrate. […] This dilution served as the first point of the inhibitor (20 µM). From this concentration point 6 more sequential dilutions were made with a dilution factor of 2. 50 µl of 16 nM FVIIa and TF complex solution and 40 µl of the inhibitor solutions were added into each well, the mixtures were incubated for 20 minutes before 10 µl of 20 mM S-2288 was added.

thrombin [3] = biological target: T3, thrombin (Bos taurus, UniProt P00735); experiment: thrombin inhibition assay (IC50, Example 4); format: biochemical, bovine; settings: footnote d: IC50
Plasmin [4] = biological target: T4, Plasmin (Bos taurus, UniProt P06868); experiment: plasmin inhibition assay (IC50, Example 4); format: biochemical; set-up: Plasmin: Buffer (see thrombin assay); settings: footnote d: IC50
Method: as §1
For dilutions of structure (13b) (see urokinase assay).

bovine trypsin = biological target: T5, bovine trypsin (Bos taurus, UniProt P00760); experiment: trypsin inhibition assay (IC50, Example 4); format: biochemical; settings: footnote d: IC50
T5 construct: purchased Sigma
Method: as §1
In the trypsin assay, pH 7.8 Tris (0.10 M Tris and 0.02 M CaCl2) was utilized as the buffer. BAPNA (from Sigma) was used at 1 mg/ml in 1% DMSO (v/v) deionized water solution as substrate. The same dilutions of structure (13b) were made as for Factor VII assay.

urokinase [5] = biological target: T6, urokinase (Homo sapiens, UniProt P00749); experiment: urokinase inhibition assay (IC50, Example 4); format: biochemical; set-up: purchased Sigma; settings: footnote d: IC50
Method: as §1
In the urokinase assay, buffer was pH 8.8 0.05 M Tris and 0.05 M NaCl in deionized water. S-2444 (from Sigma), pyroGlu-Gly-Arg-pNA at 0.5 mM in water was utilized as substrate. The same dilution procedure was used as for Factor VII and Factor X. Assay protocol is the same as for thrombin except 18.5 nM of human urokinase (from Sigma) was utilized.

t-PA = t-PA (Homo sapiens, UniProt P00750); experiment: t-PA inhibition assay (Ki, Example 5); format: biochemical; settings: tissue Plasminogen Activator; read-out: Ki (M) tPA
Method: (§2) The reaction progress curves were recorded by reading the plates, typically 60 times with 30 second to 2 minute intervals. Initial rates were determined by unweighted nonlinear least-squares fitting to a first order reaction in GraFit (Erithacus Software Limited, London, England).

Plasmin [6] = biological target: T4, Plasmin; experiment: plasmin inhibition assay (Ki, Example 5); format: biochemical, bovine plasma; set-up: Plasmin: Buffer (see thrombin assay); from tissue; host or cells: bovine plasma; settings: read-out: Ki (M) Plasmin
Method: as §2

urokinase [7] = biological target: T6, urokinase; experiment: urokinase inhibition assay (Ki, Example 5); format: biochemical, human kidney; set-up: from tissue; host or cells: human kidney
factor VII = biological target: T7, factor VII (Homo sapiens, UniProt P08709); experiment: Factor VII inhibition assay (Ki, Example 5); format: biochemical; settings: read-out: Ki (M) Factor VII
T7 construct: human Factor VIIa (FVIIa)
T7 sequence (P08709 61-212 limits assumed): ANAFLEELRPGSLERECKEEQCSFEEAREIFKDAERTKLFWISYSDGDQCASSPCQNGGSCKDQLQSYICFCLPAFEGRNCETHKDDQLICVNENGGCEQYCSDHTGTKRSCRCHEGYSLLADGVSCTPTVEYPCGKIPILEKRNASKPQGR
T7 sequence (P08709 213-466 limits assumed): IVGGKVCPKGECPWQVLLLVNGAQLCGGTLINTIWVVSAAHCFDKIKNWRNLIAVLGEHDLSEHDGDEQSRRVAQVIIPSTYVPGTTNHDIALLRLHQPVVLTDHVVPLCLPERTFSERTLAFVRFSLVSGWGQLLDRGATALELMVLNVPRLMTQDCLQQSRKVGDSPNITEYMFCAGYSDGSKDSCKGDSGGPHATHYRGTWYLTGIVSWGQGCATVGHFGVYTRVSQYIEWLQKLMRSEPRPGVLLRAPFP
Method: as §2
From this concentration point seven more sequential dilutions were made for the assay.

Factor XI = Factor XI (Homo sapiens, UniProt P03951); experiment: Factor XI inhibition assay (Ki); format: biochemical; settings: read-out: Ki (M) Factor XI
thrombin [8] = biological target: T3, thrombin; experiment: thrombin inhibition of solid phase synthesized mimetics; format: biochemical; settings: assayed as mixtures of diastereomers; read-out: Ki as thrombin inhibitors (asterisk at compound number)
Method: General Procedure: The synthesis of β-strand mimetics was initiated by deprotection of Fmoc PAL resin using 25% piperidine in DMF. Following extensive washing with DMF, the resin was treated with the acid fluoride of N-Fmoc-4-aminomethylbenzoic acid, or (81), or (86) and Hunigs' base in DMF until the Kaiser test was negative. Alternatively, the Fmoc-protected thiazole- (75) or imidazole-based (77) linkers were coupled to the resin using BOP, HOBt and DIEA. In some instances Fmoc-Leu or another amino acid was attached to the resin prior to the thiazole- (75) or imidazole-based (77) linkers via the same methodology. […] Deprotection of all Fmoc-protected linkers was effected by treatment with 25% piperidine in DMF, and deprotection the Boc-protected linker (77) was effected by TMS-Cl (1 M) and phenol (3 M) in dichloromethane for 30 min. The lysinol derivative (90) was coupled to resin-bound linkers N-Fmoc-4-aminomethylbenzoic acid, (81), or (86) using PyBOP, HOBt and Hunigs' base in DMF until a negative Kaiser test was achieved. Treatment of the resin with 25% piperidine in DMF then cleaved the FMOC group. Following washing with DMF a dienoic acid was coupled to the resin-bound linkers using PyBOP, HOBt and Hunigs' base in DMF until the result of a Kaiser test was negative. […]

T4 sequence (P06868 104-583 limits assumed): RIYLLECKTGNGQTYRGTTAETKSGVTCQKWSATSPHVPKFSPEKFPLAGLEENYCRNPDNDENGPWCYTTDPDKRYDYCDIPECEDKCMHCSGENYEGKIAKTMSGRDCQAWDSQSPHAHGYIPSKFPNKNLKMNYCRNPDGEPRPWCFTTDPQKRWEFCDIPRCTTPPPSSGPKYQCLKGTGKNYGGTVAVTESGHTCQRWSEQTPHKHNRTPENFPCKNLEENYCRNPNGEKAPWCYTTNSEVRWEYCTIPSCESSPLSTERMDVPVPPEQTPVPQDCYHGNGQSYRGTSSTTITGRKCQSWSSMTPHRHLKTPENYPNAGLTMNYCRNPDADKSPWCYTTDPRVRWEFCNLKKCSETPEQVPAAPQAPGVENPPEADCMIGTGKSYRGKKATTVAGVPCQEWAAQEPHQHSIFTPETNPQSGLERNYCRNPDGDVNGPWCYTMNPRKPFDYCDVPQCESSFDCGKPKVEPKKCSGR
T4 sequence (P06868 584-812 limits assumed): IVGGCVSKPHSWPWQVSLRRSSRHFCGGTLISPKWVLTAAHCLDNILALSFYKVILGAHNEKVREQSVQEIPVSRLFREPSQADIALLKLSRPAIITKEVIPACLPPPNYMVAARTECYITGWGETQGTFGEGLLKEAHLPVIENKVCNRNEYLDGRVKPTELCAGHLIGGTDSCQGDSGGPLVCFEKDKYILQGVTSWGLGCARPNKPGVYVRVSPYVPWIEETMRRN
Sequence of Factor XI (P03951 388-625 limits assumed): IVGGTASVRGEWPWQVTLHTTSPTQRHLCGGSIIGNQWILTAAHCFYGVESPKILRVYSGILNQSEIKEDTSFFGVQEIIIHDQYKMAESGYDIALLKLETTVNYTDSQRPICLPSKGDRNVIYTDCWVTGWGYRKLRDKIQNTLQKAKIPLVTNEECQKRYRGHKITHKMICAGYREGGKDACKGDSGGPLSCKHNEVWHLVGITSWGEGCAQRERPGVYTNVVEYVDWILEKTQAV
Sequence of Factor XI (P03951 19-387 limits assumed): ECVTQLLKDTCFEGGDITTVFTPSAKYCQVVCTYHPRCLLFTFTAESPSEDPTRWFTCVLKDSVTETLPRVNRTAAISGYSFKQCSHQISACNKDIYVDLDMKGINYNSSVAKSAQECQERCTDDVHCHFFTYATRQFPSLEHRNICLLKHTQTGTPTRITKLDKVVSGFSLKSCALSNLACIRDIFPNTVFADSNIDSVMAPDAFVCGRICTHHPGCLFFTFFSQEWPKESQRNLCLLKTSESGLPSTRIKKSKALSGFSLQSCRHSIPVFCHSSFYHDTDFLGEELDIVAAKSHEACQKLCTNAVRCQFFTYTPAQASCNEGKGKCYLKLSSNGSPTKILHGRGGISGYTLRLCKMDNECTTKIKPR
T1 sequence (P00743 41-180 limits assumed): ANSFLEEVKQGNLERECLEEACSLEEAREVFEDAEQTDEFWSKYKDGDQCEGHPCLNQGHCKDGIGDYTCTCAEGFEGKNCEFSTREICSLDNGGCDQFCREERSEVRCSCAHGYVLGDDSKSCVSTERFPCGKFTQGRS
T1 sequence (P00743 234-492 limits assumed): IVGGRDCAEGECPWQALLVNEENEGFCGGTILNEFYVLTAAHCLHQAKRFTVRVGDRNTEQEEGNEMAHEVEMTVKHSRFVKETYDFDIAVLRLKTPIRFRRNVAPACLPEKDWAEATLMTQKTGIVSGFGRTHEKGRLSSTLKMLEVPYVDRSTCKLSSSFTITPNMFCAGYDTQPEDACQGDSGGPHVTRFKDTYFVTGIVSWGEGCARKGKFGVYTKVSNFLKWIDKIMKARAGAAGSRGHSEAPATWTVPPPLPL
Sequence of t-PA (P00750 36-562): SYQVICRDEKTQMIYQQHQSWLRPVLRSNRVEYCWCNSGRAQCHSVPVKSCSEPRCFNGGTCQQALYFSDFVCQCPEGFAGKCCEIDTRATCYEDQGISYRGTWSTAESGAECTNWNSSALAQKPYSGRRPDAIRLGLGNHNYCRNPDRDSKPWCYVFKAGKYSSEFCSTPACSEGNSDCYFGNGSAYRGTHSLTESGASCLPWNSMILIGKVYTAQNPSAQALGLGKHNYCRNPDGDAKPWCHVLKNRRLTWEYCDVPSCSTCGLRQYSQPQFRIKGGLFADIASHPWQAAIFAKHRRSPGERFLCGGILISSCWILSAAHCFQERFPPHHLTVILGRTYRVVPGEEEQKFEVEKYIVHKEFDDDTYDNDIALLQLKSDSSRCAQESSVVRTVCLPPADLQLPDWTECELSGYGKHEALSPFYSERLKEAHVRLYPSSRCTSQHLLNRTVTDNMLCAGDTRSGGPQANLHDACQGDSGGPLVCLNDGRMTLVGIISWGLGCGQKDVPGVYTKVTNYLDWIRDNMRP
Sequence of Tissue Plasminogen Activator (t-PA) (P00750 36-562): as above
T5 sequence (P00760 24-246): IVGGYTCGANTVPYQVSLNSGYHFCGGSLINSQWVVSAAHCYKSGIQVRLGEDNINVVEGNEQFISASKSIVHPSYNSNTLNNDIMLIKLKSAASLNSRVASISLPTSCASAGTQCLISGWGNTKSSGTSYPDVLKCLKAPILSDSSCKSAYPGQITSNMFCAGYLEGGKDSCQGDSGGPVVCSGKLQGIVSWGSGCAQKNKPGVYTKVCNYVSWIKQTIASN
Sequence of Activated Protein C (aPC) (P04070 43-197 limits assumed): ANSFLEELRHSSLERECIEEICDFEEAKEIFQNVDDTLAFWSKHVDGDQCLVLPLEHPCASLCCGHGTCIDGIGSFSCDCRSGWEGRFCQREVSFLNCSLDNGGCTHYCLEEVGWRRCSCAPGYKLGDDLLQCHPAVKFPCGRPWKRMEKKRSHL
Sequence of Activated Protein C (aPC) (P04070 212-461 limits assumed): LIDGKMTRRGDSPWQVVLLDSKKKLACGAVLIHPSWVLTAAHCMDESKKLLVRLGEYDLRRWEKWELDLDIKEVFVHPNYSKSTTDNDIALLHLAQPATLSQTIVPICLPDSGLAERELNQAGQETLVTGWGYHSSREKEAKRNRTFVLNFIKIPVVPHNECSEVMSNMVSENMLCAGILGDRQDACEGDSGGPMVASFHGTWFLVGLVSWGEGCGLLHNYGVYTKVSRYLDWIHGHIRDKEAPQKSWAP
T2 sequence (P13726 33-295 partner, one chain of several): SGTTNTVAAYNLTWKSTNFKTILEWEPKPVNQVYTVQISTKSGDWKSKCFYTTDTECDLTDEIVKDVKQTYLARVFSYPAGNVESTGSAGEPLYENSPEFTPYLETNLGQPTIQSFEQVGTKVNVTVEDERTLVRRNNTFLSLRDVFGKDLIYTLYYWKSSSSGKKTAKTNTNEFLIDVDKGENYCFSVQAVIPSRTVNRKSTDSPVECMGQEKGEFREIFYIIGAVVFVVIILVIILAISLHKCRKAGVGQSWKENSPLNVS

pIC50 [1]: 6.28
pIC50 (bovine factor Xa): 6.41
pIC50 [2]: 6.20
pIC50 (FVIIa and TF complex): 6.85
pIC50 (thrombin [3]): 8.92
pIC50 (Plasmin [4]): 6.01
pIC50 (bovine trypsin): 6.80
pIC50 (urokinase [5]): 6.03
SMILES: N=C(N)NCCC[C@H](NC(=O)[C@@H]1CCN2CC[C@@](N)(Cc3ccccc3)C(=O)N12)C(=O)CCl [Structure (13b)]

Ki (t-PA): 4.95e-07 M
Ki (Plasmin [6]): 4.15e-07 M
Ki (urokinase [7]): 0.6 µM
Ki (factor VII): 2.7e-07 M
Ki (Factor XI): 2.7e-08 M
SMILES: N=C(N)NCCCC(NC(=O)C1CCN2CCC(N)(Cc3ccccc3)C(=O)N12)C(=O)c1nc2ccccc2s1 (centres unmarked) [Structure (20b)]

pKi (thrombin [8]): > 8.00
SMILES: CC/C=C\CCC1C=CC(C(=O)NC(CCCCN)C(=O)C(=O)NCCc2ccc(C(N)=O)cc2)n2c(=O)n(CC(c3ccccc3)c3ccccc3)c(=O)n21 (centres unmarked) [compound 106]
